In publication PMC7875539 (Science Advances, 2021) one finds Kd data, which are given here for one compound.

In general, Kd refers to the equilibrium constant for the complex coming apart. A low value points to tighter binding.

Conditions in all cases: 100 mM KCl, 5 mM MgCl2, 20 mM Hepes pH 7.5, 25 °C; CBS domain nucleotide site
Assay [1] concerns the target TpCorC CBS domain (Thermus parvatiensis, UniProt A0A109QFA5).
For assay [2], the target named is TpCorC CBS domain (Thermus parvatiensis, UniProt A0A109QFA5, T336I).
TpCorC CBS domain (Thermus parvatiensis, UniProt A0A109QFA5, T336I), sequence (A0A109QFA5 202-361 T336I limits assumed): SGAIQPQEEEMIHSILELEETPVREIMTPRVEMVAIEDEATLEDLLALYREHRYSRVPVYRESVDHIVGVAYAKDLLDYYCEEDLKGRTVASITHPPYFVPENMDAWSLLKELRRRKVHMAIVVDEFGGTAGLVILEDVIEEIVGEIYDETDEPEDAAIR
Assay [3] addresses TpCorC CBS domain (Thermus parvatiensis, UniProt A0A109QFA5, Y255A).

TpCorC CBS domain (Thermus parvatiensis, UniProt A0A109QFA5), sequence (A0A109QFA5 202-361 limits assumed): as the sequence (A0A109QFA5 202-361 T336I limits assumed) above, with I135T counted along it
TpCorC CBS domain (Thermus parvatiensis, UniProt A0A109QFA5, Y255A), sequence (A0A109QFA5 202-361 Y255A limits assumed): as the sequence (A0A109QFA5 202-361 T336I limits assumed) above, with Y54A, I135T counted along it

For `Nc1ncnc2c1ncn2[C@@H]1O[C@H](COP(=O)(O)OP(=O)(O)OP(=O)(O)O)[C@@H](O)[C@H]1O` [ATP], the results for the Kd in assay [1], in assay [2] and in assay [3] were 460 nM, 9400 nM and 2800 nM, respectively.
